The text below walks through data of paper PMC11352961, “Peptide dendrimers transfecting CRISPR/Cas9 plasmid DNA: optimization and mechanism” (RSC Chemical Biology, 2024).

Molecules are shown by their SMILES. Bridge positions count the residues as written; N and C are the ends. Square brackets hold non-standard residues; d marks the D form. Side chains are listed from the residue outwards. Peptide text beside a SMILES is read from it. I, II: the chains in the order shown. * marks the point of attachment. Stearoyl = CCCCCCCCCCCCCCCCCC(=O)*; Palmitoyl = CCCCCCCCCCCCCCCC(=O)*

Data set [1] deals with HEK293 cells. Nature of the data set: Cell viability by PrestoBlue assay after transfection, HEK cells. The data set is classed as cell-based. The conditions noted are these: 4 h.
The conditions of data set [2]: cited from earlier work.
The next data set can be described thus: in vitro. To be noted: isolated enzyme proteinase k, pH 8.
The test system of data set [3] is HEK293 cells. Type of data set: cell-based. The conditions noted are these: 1 h.
Another data set concerns HeLa cells. Description: Cell viability by PrestoBlue assay after transfection, HeLa cells. Type of data set: cell-based. To be noted: 4 h.

With `CCCCCCCCCCCCCCCC(=O)NCCCC[C@@H](NC(=O)[C@@H](CCCCNC(=O)CCCCCCCCCCCCCCC)NC(=O)[C@@H](CCCCNC(=O)[C@@H](CC(C)C)NC(=O)[C@@H](CC(C)C)NC(=O)[C@@H](CCCCNC(=O)[C@@H](CC(C)C)NC(=O)[C@@H](CCCCN)NC(=O)[C@@H](CCCCNC(=O)[C@@H](CC(C)C)NC(=O)[C@H](N)CCCCN)NC(=O)[C@@H](CC(C)C)NC(=O)[C@H](N)CCCCN)NC(=O)[C@@H](CC(C)C)NC(=O)[C@@H](CCCCN)NC(=O)[C@@H](CCCCNC(=O)[C@@H](CC(C)C)NC(=O)[C@H](N)CCCCN)NC(=O)[C@@H](CC(C)C)NC(=O)[C@H](N)CCCCN)NC(=O)[C@@H](CC(C)C)NC(=O)[C@@H](CC(C)C)NC(=O)[C@@H](CCCCNC(=O)[C@@H](CC(C)C)NC(=O)[C@@H](CCCCN)NC(=O)[C@@H](CCCCNC(=O)[C@@H](CC(C)C)NC(=O)[C@H](N)CCCCN)NC(=O)[C@@H](CC(C)C)NC(=O)[C@H](N)CCCCN)NC(=O)[C@@H](CC(C)C)NC(=O)[C@@H](CCCCN)NC(=O)[C@@H](CCCCNC(=O)[C@@H](CC(C)C)NC(=O)[C@H](N)CCCCN)NC(=O)[C@@H](CC(C)C)NC(=O)[C@H](N)CCCCN)C(N)=O` [DMH13, reference compound] (I: H-[dK][dL][dK]([dL-dK])[dK][dL][dK][dL][dL][dK][dK](Palmitoyl)[dK](Palmitoyl)-NH2 / II: H-[dK][dL][dK]([dL-dK])[dK][dL][dK][dL][dL] / III: H-[dK][dL][dK]([dL-dK])[dK][dL] / IV: H-[dK][dL][dK]([dL-dK])[dK][dL]; amide I:6-IV:C, I:9-II:C, II:6-III:C), the “% viability HEK cells” value in the data set on HEK293 cells [1] is reported as 96 ± 6%. Further, the “pKa of dendrimer N-termini” value in data set [2] is recorded as about 6.5.
Regarding `CCCCCCCCCCCCCCCCCC(=O)NCCCC[C@H](NC(=O)[C@H](CCCCNC(=O)[C@H](CC(C)C)NC(=O)[C@H](CCCNC(=N)N)NC(=O)[C@H](CCCCNC(=O)[C@H](CC(C)C)NC(=O)[C@H](CCCNC(=N)N)NC(=O)[C@H](CCCCNC(=O)[C@H](CC(C)C)NC(=O)[C@@H](N)CCCNC(=N)N)NC(=O)[C@H](CC(C)C)NC(=O)[C@@H](N)CCCNC(=N)N)NC(=O)[C@H](CC(C)C)NC(=O)[C@H](CCCNC(=N)N)NC(=O)[C@H](CCCCNC(=O)[C@H](CC(C)C)NC(=O)[C@@H](N)CCCNC(=N)N)NC(=O)[C@H](CC(C)C)NC(=O)[C@@H](N)CCCNC(=N)N)NC(=O)[C@H](CC(C)C)NC(=O)[C@H](CCCNC(=N)N)NC(=O)[C@H](CCCCNC(=O)[C@H](CC(C)C)NC(=O)[C@H](CCCNC(=N)N)NC(=O)[C@H](CCCCNC(=O)[C@H](CC(C)C)NC(=O)[C@@H](N)CCCNC(=N)N)NC(=O)[C@H](CC(C)C)NC(=O)[C@@H](N)CCCNC(=N)N)NC(=O)[C@H](CC(C)C)NC(=O)[C@H](CCCNC(=N)N)NC(=O)[C@H](CCCCNC(=O)[C@H](CC(C)C)NC(=O)[C@@H](N)CCCNC(=N)N)NC(=O)[C@H](CC(C)C)NC(=O)[C@@H](N)CCCNC(=N)N)C(N)=O` [Z23] (I: H-RLK([Leu-Arg])RLKRLKK(Stearoyl)-NH2 / II: H-RLK([Leu-Arg])RLKRL / III: H-RLK([Leu-Arg])RL / IV: H-RLK([Leu-Arg])RL; amide I:6-IV:C, I:9-II:C, II:6-III:C), in the data set on HEK293 cells [1], the “% viability HEK cells” value was found to be 83 ± 2%. In addition, in “in vitro”, the amount remaining at 1 h, 200 µM is 45%; the fraction remaining at 2 h, 200 µM turned out to be 39.6%; the fraction remaining at 3 h, 200 µM is 24.6%; the share remaining at 12 h, 200 µM was 1.66%. Moreover, the amount remaining at 24 h, 200 µM in “in vitro” is 1.73%. For the same compound, the “transfection of HEK cells with protease inhibition” value in the data set on HEK293 cells [3] is listed as 46%. In the data set on HeLa cells, the “% viability HeLa cells” value was found to be 95 ± 5%.

One may read the amount remaining as what is left of the initial amount, in per cent.
